Publication PMC3958483, “Fine Specificity and Molecular Competition in SLAM Family Receptor Signalling” (PLoS ONE, 2014)
Non-standard residues stand in square brackets, D forms with d. Residues, ends and D or L forms follow the SMILES beside them. *: point of attachment. Biotin = O=C1N[C@H]2[C@H](CS[C@H]2CCCCC(=O)*)N1; pY = N[C@@H](Cc1ccc(OP(=O)(O)O)cc1)C(=O)O

Key:
[1] = molecular target: T1, SHP-2 (SH2-SH2) (Homo sapiens, UniProt Q06124); assay: SPR binding of SHP-2 tandem (N+C) SH2 domains to immobilised phosphopeptides; details: 37°C, SHP2 N+C SH2, equilibrium binding fit shown in Figure 6D
T1 construct: OPPF catalogue number 3911; aa 2–219, EC = 23,045 M^−1 cm^−1; His-tag; host or cells: E. coli BL21(DE3)pLysS
T1 sequence (Q06124 2-219): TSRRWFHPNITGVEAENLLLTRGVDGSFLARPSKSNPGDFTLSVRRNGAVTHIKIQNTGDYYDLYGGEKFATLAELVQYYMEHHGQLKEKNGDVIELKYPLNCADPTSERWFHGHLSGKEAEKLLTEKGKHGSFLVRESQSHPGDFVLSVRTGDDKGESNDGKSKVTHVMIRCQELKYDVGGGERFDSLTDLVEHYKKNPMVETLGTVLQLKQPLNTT
Source text: Biotinylated EAT-2 was produced by expression of full length human EAT-2 with a C-terminal BirA tag ([…]) in the E coli expression vector pTrcHisA. Constructs encoding the 6xHis-tagged tandem SH2 domains plus the SH3 domains of PLCγ1 (Swiss-Prot: P19174, aa 536–863) and PLCγ2 (Swiss-Prot: P16885, aa 519–838) were generated in pTrcHisA (5′ joining sequence with BglII site underlined: gag atc tcc translates as EIS). The molecular weight (MW) and theoretical extinction coefficients (EC) of recombinant PLCγ1 and PLCγ2 SH2-SH2-SH3 domains were PLCγ1; MW = 42531, EC = 63,830 M^−1 cm^−1 and PLCγ2; MW = 42415, EC = 67,270 M^−1 cm^−1.
Measurements of protein-protein affinity were performed on BIAcore 3000 and T200 systems using CM5 or biotin capture chips (GE Healthcare Ltd, UK). Streptavidin was coupled to CM5 sensor chips using standard NHS/EDC chemical linkage, followed by immobilization of biotinylated peptides. […] Equilibrium binding coefficients and dissociation and association rates were calculated using BIAevaluation and/or GraphPad Prism 5.4 software.
Binding of inhibitory tyrosine phosphatases through their SH2 domains to ITIMs is enhanced by phosphorylation of two tyrosine motifs which are appropriately spaced. […] We measured binding of SHP-2 tandem SH2 domains (recombinant SHP-1 SH2 domains were unstable in solution) to tandem ITSMs in CD244 (Figure 6B and Table 4). […]

[2] = Pull-down with EAT-2 Y127 phosphopeptide from NK92 lysates, LC-MS/MS; format: binding, human; details: NK92 cell lysates
Description: (§1) For pull-down of associated proteins, streptavidin Sepharose (GE Healthcare) was pre-coated with saturating amounts of peptide or EAT-2. NK92 cells (4×10^8) were treated with 500 μM pervanadate for 15 minutes, then lysed in PBS, 1% Triton X-100, 1 mM sodium orthovanadate in the presence of mammalian protease inhibitor solution (Sigma). Lysates were pre-cleared by centrifugation, followed by incubation with streptavidin Sepharose. Peptide or EAT-2-coated streptavidin beads were incubated with NK92 lysates for 2 hours at 4°C with rotation. Beads were washed once with 15 ml ice cold PBS/1% (v/v) Triton X-100. Bound protein was eluted using 100 mM glycine-HCl pH 2.5.
Protein samples were prepared for mass spectrometry as described previously. Briefly, eluted proteins were spun onto the membranes of Vivacon 500 filters (10,000 MWCO – Sartorius). Membranes were washed once with PBS then proteins were denatured with 8 M urea, reduced with 10 mM DTT in 25 mM ammonium bicarbonate buffer, followed by alkylation with 50 mM iodoacetamide. Proteins were then digested overnight with trypsin. Tryptic peptides were then eluted from the membrane and analyzed on an Ultimate 3000 HPLC-coupled Orbitrap XL mass spectrometer. […] Raw data files were converted to mzXML format using ReADW (v. 4.2.1) and submitted to the Central Proteomics Facilities Pipeline for database comparison and peptide identification. […]

[3] = tested on: NK92 cells; assay: IFNγ production by NK92 cells; format: cell-based, human; details: TJW, unpublished
[4] = Pull-down with phosphorylated CD244 ITSM1 from NK cell lysates, LC-MS/MS; format: binding; details: human NK cell lysates; compared with control phosphopeptide SHIP-1 Y865
Description: as §1
Protein samples were prepared for mass spectrometry as described previously. Briefly, eluted proteins were spun onto the membranes of Vivacon 500 filters (10,000 MWCO – Sartorius). Membranes were washed once with PBS then proteins were denatured with 8 M urea, reduced with 10 mM DTT in 25 mM ammonium bicarbonate buffer, followed by alkylation with 50 mM iodoacetamide. Proteins were then digested overnight with trypsin. Tryptic peptides were then eluted from the membrane and analyzed on an Ultimate 3000 HPLC-coupled Orbitrap XL mass spectrometer. Proteins were identified by liquid chromatography-coupled tandem mass-spectrometry (LC-MS/MS). Raw data files were converted to mzXML format using ReADW (v. 4.2.1) and submitted to the Central Proteomics Facilities Pipeline for database comparison and peptide identification. Searching against the International Protein Index (IPI) human protein sequence database for protein identification, protein and peptide hits were statistically validated by applying a 1% false discovery rate (FDR) by searching against a concatenated target/decoy database. Datasets were searched with variable peptide modifications for phosphotyrosine, phosphoserine, phosphothreonine, oxidation of methionine and deamination.
Protein identification data were exported into ProteinCenter (v3.8.3013 – Thermo Fisher) for filtering and annotation. Results were filtered to remove any proteins with less than 3 unique peptides, less than 10 percent sequence coverage, or median protein probability scores less than 0.5. To establish sample specificity, any protein with at least 10-fold greater sequence coverage in one sample compared with the other was considered to be specific for that sample.
Similarly, differences in specificity of inhibitory SH2 domain containing proteins for ITSMs are relevant to understanding mechanisms of inhibition by ITSMs. We focused on CD244 ITSMs to establish general paradigms.

CC[C@H](C)[C@H](NC(=O)[C@H](CCSC)NC(=O)[C@H](CO)NC(=O)[C@H](Cc1ccc(OP(=O)(O)O)cc1)NC(=O)[C@@H](NC(=O)[C@@H](NC(=O)[C@H](CO)NC(=O)CNC(=O)CNC(=O)CNC(=O)[C@@H]1CCCN1C(=O)[C@H](Cc1ccccc1)NC(=O)[C@@H](NC(=O)[C@H](CCC(N)=O)NC(=O)[C@H](CCC(=O)O)NC(=O)[C@H](CCC(N)=O)NC(=O)[C@H](CCC(=O)O)NC(=O)[C@H](Cc1c[nH]cn1)NC(=O)[C@H](CC(N)=O)NC(=O)[C@H](CCCNC(=N)N)NC(=O)[C@H](CCCNC(=N)N)NC(=O)[C@@H](NC(=O)[C@H](CCCCN)NC(=O)[C@H](CC(C)C)NC(=O)[C@H](CC(=O)O)NC(=O)[C@H](CCCCN)NC(=O)[C@@H](NC(=O)[C@H](CC(=O)O)NC(=O)[C@H](CCC(=O)O)NC(=O)[C@H](Cc1ccc(OP(=O)(O)O)cc1)NC(=O)[C@@H](NC(=O)[C@@H](NC(=O)[C@H](CC(C)C)NC(=O)[C@H](Cc1ccccc1)NC(=O)[C@H](CCC(=O)O)NC(=O)CCCC[C@@H]1SC[C@@H]2NC(=O)N[C@@H]21)[C@@H](C)O)[C@@H](C)CC)C(C)C)[C@@H](C)O)[C@@H](C)O)[C@@H](C)O)[C@@H](C)CC)C(=O)N[C@@H](CCC(N)=O)C(=O)N[C@@H](CO)C(=O)O [CD244 ITSM1+ITSM2] (Biotin-EFLTI[pY]EDVKDLKTRRNHEQEQTFPGGGSTI[pY]SMIQS-OH)
Kd [1]: 2400 nM

Fyn: Src-family kinase
pull-down by EAT-2 Y127 [2]: Notably absent from this list

PLCγ1: phospholipase C gamma-1
effect on IFNγ production by NK92 cells [3]: inhibitory
pull-down by CD244 ITSM1 [4]: pulled down by the ITSM peptide
